Measurements as given in PubChem BioAssay (NCI).
Where “and” joins values, the source holds several entries; their conditions need not be identical. Equal values may be shown once.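 48-hour exposure; five concentrations; linearly interpolated endpoints. GI50 marks 50% less growth. Definition used: TGI = concentration required for complete inhibition of growth.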

How the values were obtained:
Test in all cases: NCI-60 cell line screen, 48 h
[1] = test system: NCI-H23 lung
[2] = test system: HL-60(TB) leukemia
[3] = test system: ACHN renal
[4] = test system: SK-MEL-28 melanoma
[5] = test system: SF-539 CNS
[6] = test system: IGROV1 ovarian
[7] = test system: SR leukemia
[8] = test system: NCI-H522 lung
[9] = test system: NCI-H460 lung
[10] = test system: OVCAR-4 ovarian

## C[C@]1(c2nc3c(C(N)=O)cccc3[nH]2)CCCN1
[1]
  GI50: > 100 µM
  TGI: > 100 µM
[2]
  GI50: 66.1 µM and > 100 µM
  TGI: > 100 µM
[3]
  GI50: 41.8 µM and > 100 µM
  TGI: > 100 µM
[4]
  GI50: 75.1 µM and > 100 µM
  TGI: > 100 µM
[5]
  GI50: 79.7 µM and > 100 µM
  TGI: > 100 µM
[6]
  GI50: 32.7 µM and 60.5 µM
  TGI: > 100 µM
[7]
  GI50: 19.5 µM and 10.4 µM
  TGI: > 90 µM and 51.4 µM
[8]
  GI50: > 63 µM and 97.6 µM
  TGI: > 100 µM
[9]
  GI50: 35.5 µM and 48.6 µM
  TGI: > 100 µM
[10]
  GI50: 66.1 µM and > 100 µM
  TGI: > 100 µM

## OCC#Cc1ccccc1C#Cc1ccc(C#Cc2ccccc2C#CCO)cc1
[1]
  GI50: 41.5 µM
  TGI: > 100 µM
[2]
  GI50: 90.5 µM
  TGI: > 100 µM
[3]
  GI50: 36.2 µM
  TGI: > 100 µM
[4]
  GI50: > 100 µM
  TGI: > 100 µM
[5]
  GI50: 34.9 µM
  TGI: 91.5 µM
[6]
  GI50: 30.4 µM
  TGI: > 100 µM
[7]
  GI50: 22 µM
  TGI: 49.5 µM
[8]
  GI50: 50.1 µM
  TGI: > 100 µM
[9]
  GI50: 28.3 µM
  TGI: > 100 µM
[10]
  GI50: 65.8 µM
  TGI: > 100 µM

## NC(=O)c1ccc(I)c([N+](=O)[O-])c1
[1]
  GI50: 76.1 µM
  TGI: > 100 µM
[2]
  GI50: 29.9 µM
  TGI: > 95.7 µM
[3]
  GI50: > 69.3 µM
  TGI: > 100 µM
[4]
  GI50: 98.7 µM
  TGI: > 100 µM
[5]
  GI50: > 100 µM
  TGI: > 100 µM
[6]
  GI50: > 100 µM
  TGI: > 100 µM
[7]
  GI50: 32.8 µM
  TGI: > 100 µM
[8]
  GI50: 6.06 µM
  TGI: 14.6 µM
[9]
  GI50: > 100 µM
  TGI: > 100 µM
[10]
  GI50: 17.2 µM
  TGI: 32.1 µM
